Measured values as given in ChEMBL document CHEMBL1201862, “PubChem BioAssay data set” (2004).
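Method: 48-hour compound exposure of cells in 96-well plates, five concentrations, linear interpolation of endpoints. GI50 marks 50% less growth.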 The source made the active and inactive calls. Rule as the data show it: active = GI50 up to about 1.1 µM and inactive = higher.

Assays:
Assay in all cases: NCI-60 cell line screen, 48 h
SW-620 = tested on: SW-620
NCI-H460 = tested on: NCI-H460
A498 = tested on: A498
SN12C = tested on: SN12C
CCRF-CEM = tested on: CCRF-CEM
MDA-MB-231 = tested on: MDA-MB-231
SK-MEL-5 = tested on: SK-MEL-5
LOX IMVI = tested on: LOX IMVI
M14 = tested on: M14
Malme-3M = tested on: Malme-3M
UACC-257 = tested on: UACC-257
UO-31 = tested on: UO-31
KM12 = tested on: KM12
DU-145 = tested on: DU-145
SK-OV-3 = tested on: SK-OV-3
OVCAR-4 = tested on: OVCAR-4
COLO 205 = tested on: COLO 205
NCI-H522 = tested on: NCI-H522
SF-268 = tested on: SF-268
EKVX = tested on: EKVX

Measured: GI50

O=C(Cn1c(=O)oc2ccc(C(=O)c3ccc(F)cc3)cc21)c1ccccc1
inactive: SW-620 > 100 µM | NCI-H460 53.5 µM | A498 21 µM | SN12C > 100 µM | CCRF-CEM > 100 µM | MDA-MB-231 > 100 µM | SK-MEL-5 48 µM | LOX IMVI > 100 µM | M14 > 100 µM | Malme-3M > 100 µM | UACC-257 > 100 µM | UO-31 25.7 µM | KM12 > 100 µM | DU-145 > 100 µM | SK-OV-3 > 100 µM | OVCAR-4 > 100 µM | COLO 205 66.2 µM | NCI-H522 > 100 µM | SF-268 > 100 µM

CCN(CC)CC(=O)Nc1c(C(N)=O)nnn1Cc1cc(Cl)c(C(=O)c2ccc(Cl)cc2)c(Cl)c1
inactive: SW-620 19.2 µM | A498 37.9 µM | SN12C 22.6 µM | CCRF-CEM 18 µM | MDA-MB-231 16.9 µM | SK-MEL-5 16.4 µM | EKVX 27.2 µM | LOX IMVI 16.1 µM | M14 16.9 µM | UACC-257 18.1 µM | UO-31 13.7 µM | KM12 18.8 µM | DU-145 30.8 µM | SK-OV-3 21.6 µM | OVCAR-4 31 µM | COLO 205 16.9 µM | NCI-H522 18.1 µM | SF-268 19.2 µM

C1CCN2CC3CCCN4CCCC(C2C1)C34 (configuration not stated)
inactive: SW-620 > 100 µM | NCI-H460 > 100 µM | A498 > 100 µM | SN12C > 100 µM | CCRF-CEM > 100 µM | MDA-MB-231 > 100 µM | SK-MEL-5 > 100 µM | EKVX > 100 µM | LOX IMVI > 100 µM | M14 > 100 µM | Malme-3M > 100 µM | UACC-257 > 100 µM | KM12 > 100 µM | DU-145 > 100 µM | SK-OV-3 > 100 µM | COLO 205 > 100 µM | NCI-H522 > 100 µM | SF-268 > 100 µM

CC1(C)O[C@H](C(=O)O)[C@@H](C(=O)O)O1
inactive: SW-620 > 100 µM | NCI-H460 > 100 µM | A498 > 100 µM | SN12C > 100 µM | CCRF-CEM > 100 µM | MDA-MB-231 > 100 µM | SK-MEL-5 > 100 µM | EKVX > 100 µM | LOX IMVI > 100 µM | M14 > 100 µM | Malme-3M > 100 µM | UACC-257 > 100 µM | KM12 > 100 µM | DU-145 > 100 µM | SK-OV-3 > 100 µM | OVCAR-4 > 100 µM | COLO 205 > 100 µM | NCI-H522 > 100 µM | SF-268 > 100 µM

O=C(Cc1ccc(Cl)c(Cl)c1)NCC1(N2CCCCC2)CCCCC1
inactive: SW-620 54.6 µM | NCI-H460 36.8 µM | A498 60.7 µM | SN12C 66.8 µM | CCRF-CEM 51.3 µM | MDA-MB-231 58.5 µM | EKVX 59.8 µM | LOX IMVI 36.6 µM | M14 18.3 µM | Malme-3M 21.3 µM | UACC-257 17.8 µM | UO-31 27.1 µM | KM12 50.7 µM | DU-145 61 µM | SK-OV-3 > 100 µM | OVCAR-4 64 µM | NCI-H522 38 µM | SF-268 85.3 µM

COc1ccc(C(O)c2ccccn2)cc1 (configuration not stated)
inactive: SW-620 > 100 µM | NCI-H460 > 100 µM | A498 > 100 µM | SN12C > 100 µM | MDA-MB-231 > 100 µM | SK-MEL-5 > 100 µM | EKVX > 100 µM | LOX IMVI > 100 µM | M14 > 100 µM | Malme-3M > 100 µM | UACC-257 > 100 µM | KM12 > 100 µM | DU-145 > 100 µM | SK-OV-3 > 100 µM | OVCAR-4 > 100 µM | COLO 205 > 100 µM | NCI-H522 > 100 µM | SF-268 > 100 µM

CCOC(=O)C1C(=O)CC(O)(OCC)C(C(=O)OCC)C1c1ccc(OC)cc1 (configuration not stated)
inactive: SW-620 > 100 µM | NCI-H460 > 100 µM | A498 > 100 µM | SN12C > 100 µM | CCRF-CEM > 100 µM | MDA-MB-231 > 100 µM | SK-MEL-5 > 100 µM | EKVX > 100 µM | LOX IMVI > 100 µM | Malme-3M > 100 µM | UACC-257 > 100 µM | UO-31 > 100 µM | KM12 > 100 µM | DU-145 > 100 µM | OVCAR-4 > 100 µM | COLO 205 > 100 µM | NCI-H522 > 100 µM | SF-268 > 100 µM

CN(C)CCNC(=O)c1nc([N+](=O)[O-])cn1C
inactive: SW-620 > 100 µM | NCI-H460 > 100 µM | A498 > 100 µM | SN12C > 100 µM | CCRF-CEM > 100 µM | MDA-MB-231 > 100 µM | SK-MEL-5 > 100 µM | LOX IMVI > 100 µM | M14 > 100 µM | Malme-3M > 100 µM | UACC-257 > 100 µM | UO-31 > 100 µM | KM12 > 100 µM | DU-145 > 100 µM | SK-OV-3 > 100 µM | OVCAR-4 > 100 µM | COLO 205 > 100 µM | NCI-H522 > 100 µM | SF-268 > 100 µM
